Source: PubChem BioAssay (NCI)
Several values for one entry are separate records, joined by “and”; a condition that tells them apart may be missing. Equal entries are not always repeated.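 Where inhibition never reached the appropriate level, the endpoint shown equals the highest concentration tested. Otherwise, values were interpolated linearly from a five-concentration, 48-hour dose response in 96-well plates. Here, GI50 denotes the concentration required for 50% inhibition of growth. The concentration for full growth arrest is given as TGI.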

Assays:
Test in all cases: NCI anticancer screen, dose series, 48 h
KM12 colon = tested on: KM12 colon
SF-295 CNS = tested on: SF-295 CNS
SK-MEL-28 melanoma = tested on: SK-MEL-28 melanoma
UO-31 renal = tested on: UO-31 renal
OVCAR-3 ovarian = tested on: OVCAR-3 ovarian
OVCAR-8 ovarian = tested on: OVCAR-8 ovarian
NCI-H23 lung = tested on: NCI-H23 lung
SK-MEL-5 melanoma = tested on: SK-MEL-5 melanoma
HT29 colon = tested on: HT29 colon
MOLT-4 leukemia = tested on: MOLT-4 leukemia
IGROV1 ovarian = tested on: IGROV1 ovarian
OVCAR-4 ovarian = tested on: OVCAR-4 ovarian

Structure (SMILES)	TGI (KM12 colon)	TGI (SF-295 CNS) [µM]	TGI (SK-MEL-28 melanoma)	TGI (UO-31 renal) [µM]	TGI (OVCAR-3 ovarian)	TGI (OVCAR-8 ovarian) [µM]	TGI (NCI-H23 lung)	TGI (SK-MEL-5 melanoma) [µM]	TGI (HT29 colon) [µM]	TGI (MOLT-4 leukemia) [µM]	TGI (IGROV1 ovarian)	TGI (OVCAR-4 ovarian)	GI50 (KM12 colon)	GI50 (SK-MEL-28 melanoma)	GI50 (OVCAR-3 ovarian)	GI50 (OVCAR-8 ovarian) [µM]	GI50 (NCI-H23 lung)	GI50 (MOLT-4 leukemia)	GI50 (OVCAR-4 ovarian)
CN1C(=O)c2ccccc2NC(=O)c2cnn(C)c21	> 100 µM	> 100	> 100 µM	> 100	> 100 µM	> 100	> 100 µM	> 100	> 100	> 100	> 100 µM	> 100 µM							
CC1=C(C)C(=O)O[C@@H]([C@](C)(O)[C@]2(O)CC[C@@]3(O)[C@@H]4C[C@H]5O[C@]56[C@@H](O)C=CC(=O)[C@]6(C)[C@H]4CC[C@]23C)C1	6.73 µM and 4.57 µM	19.5	5.86 µM and 3.44 µM	6.36	1.64 µM and 0.359 µM	4.2	4.63 µM and 1.29 µM	2.18	5.35		9.53 µM and 6.51 µM	3.08 µM and 1 µM	0.95 µM and 0.637 µM	0.606 µM and 0.228 µM	0.136 µM and 0.0594 µM	0.155	0.38 µM and 0.205 µM	0.0688 µM and 0.177 µM	0.0878 µM and 0.43 µM
S=C1SC(=Nc2ccccc2)C(=Nc2ccccc2)N1c1ccccc1	> 100 µM	> 100	> 100 µM	> 100	> 100 µM	> 100	> 100 µM	> 100	> 100	> 100	> 100 µM	> 100 µM							
O=C(O)CNC(=O)CO/N=C1/C(c2c(O)[nH]c3ccccc23)=Nc2ccccc21	> 100 µM	> 100	> 100 µM	> 100	> 100 µM	> 100	> 100 µM	> 100	> 100	> 100	> 100 µM	> 100 µM							
COCO[C@@H]1C[C@H]2C(O)Nc3ccccc3C(=O)N2C1 (stereo partly drawn)	> 100 µM	> 100	> 100 µM	> 100	> 100 µM	> 100	> 100 µM	> 100	> 100	> 100	> 100 µM	> 100 µM							
CCSc1nc(N)c2c(-c3ccc(OC)c(OC)c3)c3c(nc2n1)CCCC3	> 100 µM	> 100	> 100 µM	> 100	> 100 µM	> 100	> 100 µM	> 100	> 100	> 100	> 100 µM	> 100 µM							
CCC(=O)Nc1ccc(N=Cc2cccc(Oc3ccccc3)c2)cc1	> 100 µM	> 100	> 100 µM	> 100	> 100 µM	49.1	> 100 µM	> 100	> 100	76.8	> 100 µM	> 100 µM							
COCc1nc2c(OC)cc(-c3nc4nc(N5CCN(C)CC5)ccc4[nH]3)c(OC)c2[nH]1	> 100 µM	> 100	> 100 µM	> 100	83 µM	> 100	> 100 µM	38.8	> 100	> 100	> 100 µM	> 100 µM							
Cc1cc(NC(=S)Nc2ccccc2)c(NC(=S)Nc2ccccc2)cc1C	> 100 µM	62.2	> 100 µM	> 74.6	50.9 µM	> 100	> 95.1 µM	> 100	> 100	> 60.1	> 100 µM	> 100 µM							
CC(C)=CC1C(COC(=O)c2cc3c(cc2Cl)OCO3)C1(C)C (stereo not drawn)	> 100 µM	> 100	> 100 µM	> 100	65.1 µM	> 100	> 100 µM	39.6	> 100	> 100	> 100 µM	> 100 µM							
COC(=O)CCC(=O)CC(=O)C1=NS(=O)(=O)c2nc(S(N)(=O)=O)c(Cl)cc2N1	> 100 µM	> 100	> 100 µM	> 100	> 100 µM	> 100	> 100 µM	> 100	> 100	> 100	> 100 µM	> 100 µM							
